Consider ten molecules from patent US20130303619A1, “Antibacterial Compositions” (priority 2009, published 2013).

Assay [1] has as its target T1, DEAD box polypeptide 5 (DDX5) (Homo sapiens, UniProt P17844).
T1 construct: endogenous in cells; host or cells: OBA9 human gingival epithelial cell line (lysate)
Briefly: Pull down assay with benzoic acid-coupled beads and OBA9 cell lysate, Mass-Spec. The class given is binding. The note with it: beads incubated with OBA9 cell lysate. The text has this: FIG. 1 is a schematic showing a pull down assay to determine counter ligand of benzoic acids expressed on OBA9 cells is DDX5. OBA9 cells were harvested and dissolved in lysis buffer. The resulting cell lysis solution was reacted with Sephadex beads conjugated with 2,6-dihydroxy benzoic acid (DHBC) and 2,3,4-trihydroxy benzoic acid (THBC). The cellular components pulled down with beads were separated in SDS-PAGE gel, and stained with Coomassie blue. The 35 kD and 70 kD bands specific to 2,3,4-THBC were subjected to Mass-Spec analysis at Tufts University Core Facility. The procedure for pull down assay includes preparation of cell lysate from gingival epithelial cell (OBA9) culture; preparation of beads conjugated with tri-hydroxy benzoic acid (THBC); incubation of beads with OBA9 cell lysate; remove unbound protein by washing beads; the proteins bound to beads are separated in SDS-PAGE; distinct bands to 2,3,4-THBC are sent for Mass-Spec service; and identification of molecular finger print of 2,3,4-THBC binding ligand.
FIG. 2 is a schematic including the molecular finger print found in 70 kD band specific to 2,3,4-THDC that is DDX5 (SEQ ID NO: 1). The 35 kD, 70 kD and 90 kD bands specific to 2,3,4-THBC were subjected to Mass-Spec analysis service. […] Result data sheet that identified DDX5 in 70 kD band is shown.
In order to confirm if LL-37 induction in epithelial cells by EGCG is dependent on the activation of cell ligand (either cytoplasm or cell surface), or previously known anti-oxidant effects by EGCG, 3,4,5-tri-hydroxy benzoic acid-coupled beads and control 2,6-di-hydroxy benzoic acid-coupled beads are utilized to pull down the possible ligand for 3,4,5-tri-hydroxy benzoic acid. After incubation of each bead with cell lysate of OBA9, the beads are washed, and the cellular materials that bind to the beads are separated in SDS-PAGE. At least 3 bands (MW 35 kD, 70 kD and 90 kD), which are distinct to 3,4,5-tri-hydroxy benzoic acid, are detected, as compared to the other beads (control, 2,6-di-hydroxy benzoic acid and control plain beads). […]

Assay [2] concerns LL-37 expression by OBA9 cells. Kind of assay: LL-37 expression by OBA9 cells with Sepharose-coupled benzoic acid isomers. The class given is cell-based, human. The conditions noted are these: isomer coupled to NBS-activated Sepharose gel. The text has this:
In order to investigate the structure-function relationship underlying EGCG-mediated induction of LL-37 from human gingival epithelial cell line OBA9, different isomers of benzoic acids are examined for their effects on the LL-37 expression by OBA9 cells. Each isomer of benzoic acids is coupled to NBS-activated Sepharose gel (Pierce) using a cross-linker, 1-Ethyl-3-[3-dimethylaminopropyl]carbodiimide (EDC, Pierce). The isomers of benzoic acids include 1) 2,6-di-hydroxy benzoic acid, 2) 2,3,4-tri-hydroxy benzoic acids, 3) 3,4,5-tri-hydroxy benzoic acids, and 4) 2,4,6-tri-hydroxy benzoic acids.

The test system of assay [3] is LL-37 protein in cheek epithelial cells. Kind of assay: LL-37 protein expression by cheek epithelium (Western blot). Format: in vivo, human. The conditions noted are these: isolated cheek cells, anti-LL-37 monoclonal antibody. The source says: (§1) Cheek epithelium is utilized for monitoring LL-37 mRNA and protein expression to determine if Trihydroxybenzoate Derivatives of the Invention can induce LL-37 in vivo. […] The isolated cheek cells are also subjected to Western blot analysis for protein expression of LL-37 by cheek epithelium using anti-LL-37 monoclonal antibody. The expression of both the proform (18 kD, also termed as hCAP18) and secreted form (4.5 kD) of LL-37 (12) in cheek epithelial cells is induced by Trihydroxybenzoate Derivatives of the Invention (e.g., EGCG (95% SIGMA), or by EGCG (90% Teavigo)).

The next assay deals with hBD2 from OBA9 cells. Briefly: In vitro induction of hBD2 protein (ELISA) from OBA9 cells. The class given is cell-based, human. The note with it: 20 ug/ml. The protocol:
(§2) Using ELISA systems to detect LL-37 (Forsyth in-house) and hBD2 (Peprotech), 33 natural compounds (20 ug/ml) are examined for their ability to induce LL-37 and hBD2 from OBA9 cells. Although the sensitivity of the hBD2 ELISA is higher than that of LL-37 ELISA (10 pg/ml vs 1 ng/ml, respectively), the induction of LL-37 is more prominent than hBD2 (FIG. 2 A&B, LL-37; C&D, hBD2). […] Bactericidal effects of LL-37 and hBD2 are, in general, potent.
On the technique in general: In an ELISA, binding on a coated surface is turned into a signal by an enzyme label.

Another assay concerns LL-37 from OBA9 cells. Kind of assay: In vitro induction of LL-37 protein (ELISA) from OBA9 cells. The class given is cell-based, human. The conditions noted are these: 20 ug/ml. The procedure: as §2
The trihydroxybenzoate derivatives of the Invention and rosemarinic acid, courmarin, catechin gallate, epicatechin gallate, epigallocatechin, and tannic acid are tested to induce LL-37 from OBA9 cells in the absence of EGCG.

Assay [4] has as its system Actinobacillus actinomycetemcomitans Y4 (Aa Y4). Kind of assay: Bactericidal effect of culture supernatant of treated OBA9 cells. Format: cell-based. The note with it: 20 ug/ml; compared with non-treated, catechin- or 2,4-dihydroxy benzoic acid-treated OBA9 supernatant. The protocol: The culture supernatant isolate from OBA9 is treated with 1) EGCG, 2) catechin, 3) 2,4-dihydroxy benzoic acid, and 4) 3,4,5-tri-hydroxy benzoic acid (20 ug/ml, respectively) and examined for their bactericidal effects on Actinobacillus actinomycetemcomitans Y4 (Aa Y4).

The subject of another assay is LL-37 mRNA in A549. Kind of assay: LL-37 mRNA level in lung carcinoma cell line. The note with it: human lung carcinoma cell line A549. Format: cell-based. The procedure: (§3) Both LL-37 and hBD2 mRNA expression in OBA9 cells are induced after a 4-hour exposure to green tea polyphenol extract, Teaflan 90S (EGCG 50%, ECG 13%), and purified EGCG (95% pure, SIGMA) at concentrations of 0.1, 1.0 and 10 ug/ml. EGCG increases the production of LL-37 and hBD2 at the mRNA level in the human gingival epithelial cell line OBA9 (FIG. 1) as well as the human lung carcinoma cell line A549.

Assay [5] deals with LL-37 mRNA expression in OBA9 cells. Kind of assay: LL-37 mRNA expression in human gingival epithelial cells. The conditions noted are these: 4-hour exposure, 0.1, 1.0 and 10 ug/ml. Format: cell-based. The protocol:
as §3

A further assay concerns LL-37 in OBA9 cells. Briefly: EGCG-induced LL-37 (ELISA) in OBA9 cells over expressing DDX5. Format: cell-based, human. The note with it: EGCG 40 ng/ml, 2 hours. The procedure: The OBA9 cells transfected with either DDX5 over-expression vector (pK0203) or control empty vector (pKO108) were cultured for 48 h. Thereafter, the OBA9 cells were incubated with or without EGCG (40 ng/ml) for 2 hours, and the culture supernatant was subjected to ELISA for the detection of LL-37.

The next assay deals with hBD2 mRNA in A549. Kind of assay: hBD2 mRNA level in lung carcinoma cell line. The note with it: human lung carcinoma cell line A549. Format: cell-based. The protocol:
as §3

Assay [6] concerns LL37 protein in OBA9 cells. Briefly: EGCG-induced LL37 protein expression in OBA9 cells with or without DDX5 RNAi (ELISA). The note with it: OBA9 culture supernatant, EGCG 40 ng/ml, 30 min to 24 hours. Format: cell-based, human. The protocol: (§4) Our hypothesis that THBC induction of LL-37 expression is mediated via binding to DDX5 is further supported by the finding that inhibition of DDX5 expression in gingival epithelial cells (OBA9) reduces EGCG-mediated LL-37 expression. Confluent OBA9 cells in a tissue culture plate are treated with or without DDX5-specific siRNA sequences (three different siRNA sequences specific to DDX5 are examined). After 24 h and 48 h incubation, total RNA and proteins are extracted, respectively, from the OBA9 cells. […] The OBA9 cells pre-incubated with non-target siRNA and DDX5-siRNA for 48 hours are restimulated with EGCG (40 ng/ml) for 30 min, and mRNA expression for LL-37 and […] was detected by RT-PCR. […] Effects of DDX5-siRNA treatment on EGCG-mediated LL-37 protein expression by OBA9 cells is measured by ELISA.
The OBA9 cells which were pre-treated with control non-target siRNA or DDX5-siRNA (#A) for 48 hours, as shown in 1-B, were incubated with EGCG (40 ng/ml) for different periods from 30 min to 24 hours. The supernatant harvested from the OBA9 cell culture was subjected to ELISA for LL37 protein.

Assay [7] has as its system hBD2 mRNA expression in OBA9 cells. Kind of assay: hBD2 mRNA expression in human gingival epithelial cells. Format: cell-based. The conditions noted are these: 4-hour exposure, 0.1, 1.0 and 10 ug/ml. The protocol: as §3
Assay [8] deals with LL-37 mRNA in cheek epithelial cells. Briefly: In vivo LL-37 mRNA expression by human cheek epithelial cells after mouthwash (RT-PCR). The note with it: mouthwash with EGCG (40 ug/ml), after only 5 minutes from application.
From the text: as §1

The next assay relates to LL37 mRNA in OBA9 cells. Briefly: EGCG-induced LL37 mRNA expression in OBA9 cells with or without DDX5 RNAi (RT-PCR). The class given is cell-based, human. The conditions noted are these: EGCG 40 ng/ml, 30 minutes. The protocol:
as §4
After treatment of OBA9 cells with control non-target siRNA or DDX5-siRNA (#A) for 48 hours, the OBA9 cells were incubated with or without EGCG (40 ng/ml) for 30 minutes. The total RNA isolated from the OBA9 cells was subjected to RT-PCR for LL37 mRNA as well as internal control β-actin mRNA.

“Also recorded” adds a separate entry of the source.

T1 sequence (P17844 whole entry): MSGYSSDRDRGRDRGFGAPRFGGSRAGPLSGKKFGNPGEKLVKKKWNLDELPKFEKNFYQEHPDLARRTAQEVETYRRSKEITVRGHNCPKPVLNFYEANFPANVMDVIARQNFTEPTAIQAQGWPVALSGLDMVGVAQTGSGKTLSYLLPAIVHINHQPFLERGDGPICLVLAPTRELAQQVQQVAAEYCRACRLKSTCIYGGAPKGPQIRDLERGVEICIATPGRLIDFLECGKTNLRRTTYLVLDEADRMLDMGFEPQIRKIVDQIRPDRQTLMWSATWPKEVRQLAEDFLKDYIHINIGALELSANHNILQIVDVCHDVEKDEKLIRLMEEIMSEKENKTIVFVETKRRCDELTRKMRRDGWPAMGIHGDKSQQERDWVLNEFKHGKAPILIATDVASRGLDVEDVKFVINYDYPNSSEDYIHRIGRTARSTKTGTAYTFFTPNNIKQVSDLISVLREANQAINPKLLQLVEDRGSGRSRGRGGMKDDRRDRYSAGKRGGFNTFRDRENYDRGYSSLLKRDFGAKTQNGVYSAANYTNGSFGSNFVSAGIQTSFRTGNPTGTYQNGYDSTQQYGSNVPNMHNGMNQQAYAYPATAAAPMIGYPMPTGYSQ

Turning to `O=C(O)c1ccc(O)c(O)c1O` [2,3,4-tri-hydroxy benzoic acids, 2,3,4-trihydroxybenzoic acid], in assay [1], the “binding to DDX5 (pull down, 70 kD band)” value is listed as “only found in 2,3,4-THDC beads”. Besides, the “induction of LL-37 expression by OBA9 cells” value (shortened to “induction of LL-37 expression”) in assay [2] is “show the induction of LL-37 expression”.

`O=C(O[C@@H]1Cc2c(O)cc(O)cc2O[C@@H]1c1cc(O)c(O)c(O)c1)c1cc(O)c(O)c(O)c1` [EGCG (90% Teavigo)]: the “expression of proform (18 kD) and secreted form (4.5 kD) of LL-37 in cheek epithelial cells (Western blot)” value in assay [3] is “induced”.

`O=C(O)c1c(O)cc(O)cc1O` [2,4,6-tri-hydroxy benzoic acids, reference compound]: the “induction of LL-37 expression” value in [2] is “not”.

For `CCCCCCCCCCCCCC(=O)O[C@@H]1[C@@H](C)[C@@]2(O)[C@@H](C=C(CO)C[C@]3(O)C(=O)C(C)=C[C@@H]23)[C@@H]2C(C)(C)[C@]12OC(C)=O` [PMA], in the assay with hBD2 from OBA9 cells, the “induction of hBD2 (ELISA)” value is on record as “minimal induction activities”. The “induction of LL-37 (ELISA)” value in the assay on LL-37 from OBA9 cells was “induced LL-37”.

With `O=c1ccc2ccccc2o1` [courmarin], the “induction of LL-37 (ELISA)” value in the assay with LL-37 from OBA9 cells is given as “little or no induction”.

Turning to `O=C(O)c1cc(O)c(O)c(O)c1` [3,4,5-tri-hydroxy benzoic acid, 3,4,5-trihydroxybenzoic acid], the “binding to DDX5 (pull down, 70 kD band)” value in assay [1] is reported as “binds to DDX5 expressed in gingival epithelial cells with high affinity”. The “induction of LL-37 expression” value in [2] was “show the induction of LL-37 expression”. For the same molecule, the “bactericidal effects of culture supernatant of treated OBA9 cells on Aa Y4” value in assay [4] is “more bactericidal effects”. For the same molecule, in the assay on LL-37 from OBA9 cells, the “induction of LL-37 (ELISA)” value is on record as “more potent than 3,4,-dihydroxy benzoate”.

Turning to `O=C(O)c1c(O)cccc1O` [2,6-di-hydroxy benzoic acids, 2,6-dihydroxy benzoic acid, reference compound], the “induction of LL-37 expression” value in assay [2] is “not”.

Regarding Poly IC, the “induction of hBD2 (ELISA)” value in the assay with hBD2 from OBA9 cells is reported as “minimal induction activities”. For the same molecule, the “induction of LL-37 (ELISA)” value in the assay with LL-37 from OBA9 cells was “induced LL-37”.

As for `O=C(/C=C/c1ccc(O)c(O)c1)O[C@H](Cc1ccc(O)c(O)c1)C(=O)O` [Rosemarinic acid], the “induction of LL-37 (ELISA)” value in the assay on LL-37 from OBA9 cells was “little or no induction”.

For the molecule `O=C(O[C@@H]1Cc2c(O)cc(O)cc2O[C@@H]1c1cc(O)c(O)c(O)c1)c1cc(O)c(O)c(O)c1` [EGCG, epigallocatechin gallate], the “production of LL-37 at the mRNA level” value in the assay with LL-37 mRNA in A549 is listed as “increases”. For the same molecule, the “binding to DDX5 (pull down, 70 kD band)” value in [1] was “binds to DDX5”. Besides, the “LL-37 mRNA expression” value in assay [5] is “induced”. The “LL-37 expression induced by EGCG (ELISA)” value in the assay with LL-37 in OBA9 cells (OBA9 with no vector, empty vector pK0108 or pK0203) was “induced the LL-37 expression in all three conditions”. The “LL-37 expression induced by EGCG in OBA9 transfected with DDX5 over-expression vector versus no vector or empty vector” value in the assay on LL-37 in OBA9 cells (P<0.05, Student t test) is “significantly higher”. Also, the “production of hBD2 at the mRNA level” value in the assay on hBD2 mRNA in A549 is “increases”. For the same molecule, in assay [6], the “LL37 protein expression after EGCG stimulation (ELISA)” value is reported as “detected as early as 30 min until 24 hours; also recorded: increased in a time dependent manner”. Also, the “expression of proform (18 kD) and secreted form (4.5 kD) of LL-37 in cheek epithelial cells (Western blot)” value in assay [3] is on record as “induced”. For the same molecule, the “bactericidal effects of culture supernatant of treated OBA9 cells on Aa Y4” value in [4] was “more bactericidal effects”. For the same molecule, the “hBD2 mRNA expression” value in [7] was “induced”. Also, in [8], the “LL-37 mRNA expression by cheek epithelial cells (RT-PCR)” value was “up-regulated”. Besides, the “LL37 mRNA expression induced by EGCG” value in the assay on LL37 mRNA in OBA9 cells is on record as “induced”.
